PMC5299059 (Cell metabolism, 2017)

Legend:
BRAF V600R [1] = molecular target: T1, BRAF V600R (Homo sapiens, UniProt P15056, V600R); assay: […]-labeled acetoacetate radiometric binding to purified bead-bound BRAF
BRAF V600D [2] = molecular target: T2, BRAF V600D (Homo sapiens, UniProt P15056, V600D); assay: as above
BRAF V600E [3] = molecular target: T3, BRAF V600E (Homo sapiens, UniProt P15056, V600E); assay: as above
BRAF V600D [4] = molecular target: T2, BRAF V600D; assay: […]-acetoacetate competition binding
BRAF V600E [5] = molecular target: T3, BRAF V600E; assay: […]-acetoacetate competition binding
BRAF V600R [6] = molecular target: T1, BRAF V600R; assay: […]-acetoacetate competition binding

T1 sequence (P15056 whole entry V600R): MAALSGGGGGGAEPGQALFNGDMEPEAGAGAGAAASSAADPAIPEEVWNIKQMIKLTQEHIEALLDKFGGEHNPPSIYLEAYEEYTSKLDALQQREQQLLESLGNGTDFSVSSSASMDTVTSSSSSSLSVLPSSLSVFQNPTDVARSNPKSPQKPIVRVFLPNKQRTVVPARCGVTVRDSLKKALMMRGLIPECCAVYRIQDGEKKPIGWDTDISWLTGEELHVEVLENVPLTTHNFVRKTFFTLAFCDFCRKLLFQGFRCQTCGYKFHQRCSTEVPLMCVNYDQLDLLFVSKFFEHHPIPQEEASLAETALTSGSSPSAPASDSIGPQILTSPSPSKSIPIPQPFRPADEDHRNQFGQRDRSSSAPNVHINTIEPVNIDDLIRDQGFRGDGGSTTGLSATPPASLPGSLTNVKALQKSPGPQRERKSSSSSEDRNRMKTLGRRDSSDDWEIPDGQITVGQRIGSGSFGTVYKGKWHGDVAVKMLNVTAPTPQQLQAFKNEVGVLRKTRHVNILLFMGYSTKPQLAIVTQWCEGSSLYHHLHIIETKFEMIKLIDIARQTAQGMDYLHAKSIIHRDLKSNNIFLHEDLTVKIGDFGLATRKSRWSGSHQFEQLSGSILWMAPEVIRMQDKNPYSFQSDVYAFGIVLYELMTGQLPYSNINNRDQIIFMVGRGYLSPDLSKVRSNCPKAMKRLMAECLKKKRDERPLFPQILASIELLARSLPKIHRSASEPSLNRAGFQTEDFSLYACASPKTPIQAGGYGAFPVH
T2 sequence (P15056 whole entry V600D): as the sequence (P15056 whole entry V600R) above, with R600D counted along it
T3 sequence (P15056 2-766 V600E): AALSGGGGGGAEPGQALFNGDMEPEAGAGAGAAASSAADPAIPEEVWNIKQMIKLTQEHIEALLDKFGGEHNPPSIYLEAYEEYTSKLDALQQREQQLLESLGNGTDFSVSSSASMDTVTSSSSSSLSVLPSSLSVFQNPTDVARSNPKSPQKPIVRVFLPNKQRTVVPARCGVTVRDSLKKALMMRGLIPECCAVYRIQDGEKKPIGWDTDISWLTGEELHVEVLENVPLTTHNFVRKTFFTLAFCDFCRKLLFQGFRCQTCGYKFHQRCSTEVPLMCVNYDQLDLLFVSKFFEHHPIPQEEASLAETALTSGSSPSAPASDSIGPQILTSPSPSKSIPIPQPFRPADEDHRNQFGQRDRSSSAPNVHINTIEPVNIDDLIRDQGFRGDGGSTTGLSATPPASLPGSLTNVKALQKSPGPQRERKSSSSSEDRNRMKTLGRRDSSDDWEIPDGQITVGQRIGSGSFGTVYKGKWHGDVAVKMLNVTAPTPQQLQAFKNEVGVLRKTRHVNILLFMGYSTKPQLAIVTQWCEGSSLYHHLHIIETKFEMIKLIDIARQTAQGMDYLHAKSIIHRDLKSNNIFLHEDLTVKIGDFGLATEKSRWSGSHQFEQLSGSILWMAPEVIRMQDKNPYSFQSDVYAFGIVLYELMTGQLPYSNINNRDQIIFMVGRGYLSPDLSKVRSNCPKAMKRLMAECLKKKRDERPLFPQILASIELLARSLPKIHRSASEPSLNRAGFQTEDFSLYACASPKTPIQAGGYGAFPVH

Kd (BRAF V600R [1]) [µM] | Kd (BRAF V600D [2]) [µM] | Kd (BRAF V600E [3]) [µM] | SMILES | Ki (BRAF V600D [4]) [µM] | Ki (BRAF V600E [5]) [µM] | Ki (BRAF V600R [6]) [µM]
~113 | ~93 | ~92 | CC(=O)CC(=O)O [AA, acetoacetate] |  |  | 
 |  |  | CC(=O)C1C(=O)C=C(C)OC1=O (stereo not drawn) [DHAA, dehydroacetic acid] | ~88 | ~88 | ~91
